The assay concerns CHP212 cells. The assay is described as follows: Measurement of fluctuation in the amount of Aβ accumulation in cultured nerve cells. The assay is classed as cell-based. As to conditions: cultured nerve cells (human neuroblastoma CHP212); Aβ in the medium by ELISA (Human/Rat Amyloid β1-42 kit) 48 hours after addition of test substance; 10^-12 M to 10^-6 M; versus DMSO control (100%), FIG. 1. The text has this:
FIG. 1 is a diagram showing results of measuring fluctuation caused by a test substance of the formula (a) in the amount of Aβ accumulation in cultured nerve cells (CHP212 cells).
In the diagram, each column represents, starting from the left, a result of measurement obtained in a well to which the test substance has been added so that its final concentration can be 10^−12M (10^−12 M), in a well to which the test substance has been added so that its final concentration can be 10^−11M (10^−11M), in a well to which the test substance has been added so that its final concentration can be 10^−10M (10^−10M), in a well to which the test substance A has been added so that its final concentration can be 10^−9M (10^−9M), in a well to which the test substance has been added so that its final concentration can be 10^−8M (10^−8M), in a well to which the test substance has been added so that its final concentration can be 10^−7M (10^−7M), and in a well to which the test substance has been added so that its final concentration can be 10^−6M (10^−6 M). The results are shown in % by setting a result obtained in a control well to which only a solvent (DMSO) has been added as 100%. […]
On the technique in general: In an ELISA, binding on a coated surface is turned into a signal by an enzyme label.

Turning to `O=c1cc(C(F)(F)F)c2cc(N(CC(F)(F)F)CC(F)(F)F)ccc2[nH]1` [formula (a)], the “amount of Aβ accumulation” value was “markedly decreased”.

Source of the values: patent publication US20100204216A1, “PHARMACEUTICAL COMPOSITION FOR […]-beta PROTEIN ACCUMULATION” (SUMMITOMO CHEMICAL COMPANY LIMITED, priority 2007, published 2010).
